# Results taken from patent US20230184749A1, “DRUG RANKING METHOD AND SYSTEM, COMPARISON METHOD FOR DRUG RANKING METHOD AND NEW USE OF DRUG SELECTED USING THE SAME” (National Tsing Hua University, priority 2021, published 2023).
# Like-named read-outs stand apart in the source and are kept apart here.
# Tested on: SARS-CoV-2
# Assay: Plaque assay, anti-SARS-CoV-2 activity in Vero E6 cells
# Assay type: cell-based, SARS-CoV-2 (hCoV-19/Taiwan/NTU13/2020)
# Settings: for average percentage of suppression of SARS-CoV-2 replication / plaque reduction compared to the negative control groups (FIG. 13): Vero E6 cells; for average percentage of suppression of SARS-CoV-2 replication: 5 days of incubation; for EC50: Severe acute respiratory syndrome coronavirus 2, Vero C1008, read-out: EC50 (minimal concentration required to reduce 50% of plaque count); for plaque reduction compared to the negative control groups (FIG. 13): at least 10 μM
Structure (SMILES),average percentage of suppression of SARS-CoV-2 replication (10 μM) [%],average percentage of suppression of SARS-CoV-2 replication (40 μM) [%],EC50 [µM],plaque reduction compared to the negative control groups (FIG. 13),"EC50 (SARS-CoV-2 infected Vero E6 cells, regression analysis of dose-response curves) [µM]"
"CC(Cc1ccc(O)cc1)NCC(O)c1cc(O)cc(O)c1 (stereo not shown) [Fenoterol, 5-[1-hydroxy-2-[1-(4-hydroxyphenyl)propan-2-ylamino]ethyl]benzene-1,3-diol]",17.0,68.9,30,effective in suppressing SARS-CoV-2 replication,–
"CCCCCN=C(N)N/N=C/c1c[nH]c2ccc(OC)cc12 [Tegaserod, 1-[(E)-(5-methoxy-1H-indol-3-yl)methylideneamino]-2-pentylguanidine]",54.3,–,–,effective in suppression SARS-CoV-2 replication,< 10
